Laboratory results taken from patent US20220016118A1, “COMBINATION OF A MCL-1 INHIBITOR AND MIDOSTAURIN, USES AND PHARMACEUTICAL COMPOSITIONS THEREOF” (LES LABORATOIRES SERVIER, priority 2018, published 2022).

Columns and labels:
[1] = tested on: AML with FLT3 mutation; settings: added to cytarabine and daunorubicin induction and cytarabine consolidation; cited from earlier work
[2] = tested on: MV-4-11 cells; experiment: Western blot of FLT3-mediated signaling and Bcl-2 family proteins; assay type: cell-based; settings: 6 hours
Procedure: B. Western blot analysis of FLT3-mediated signaling pathways and expression of Bcl-2 family proteins in MV-4-11 cells treated for 6 hours with Midostaurin. S63845 alone or in combination. De-phosphorylation of FLT3-ITD lead to inactivation of STAT5 and MAPK and was accompanied by significant downregulation of MAPK-mediated phosphorylation of Mcl-1 at Thr163, site required for Mcl-1 stability. Consequently, Midostaurin reduced level of Mcl-1.
Cells (3×10^6/well) were seeded in 6-well plates in 5 mL of complete RPMI medium and exposed to Midostaurin and S63845 given alone or in combination. Control cells received DMSO. Cells were incubated for 6 hours and then collected, washed twice in PBS and lysed in RIPA buffer (ThermoFisher Scientific) supplemented with 1× Protease and Phosphatase Inhibitor cocktail (ThermoFisher Scientific). Lysates were kept on ice for 20 minutes with vortexing every 5 minutes, then briefly sonicated and centrifuged at 13500 rpm for 15 minutes. Supernatant was collected and protein content was measured using […]. Cell lysates (30-50 μg protein per well) were resolved by electrophoresis on 4%-20% gradient precast sodium dodecyl sulfate-polyacrylamide gels (Bio-Rad, Hercules, Calif.) and transferred to PVDF membrane (Bio-Rad). […]

[3] = tested on: solid tumors; settings: single agent, Phase I trial; cited from earlier work
[4] = tested on: MV4-11 FLT3-ITD; experiment: Dynamic BH3 profiling (cytochrome C release); assay type: cell-based; settings: 4 hours after treatment with Midostaurin (100 nM)
Procedure: Cells were subjected to BH3 profiling assay 4 hours after treatment with Midostaurin (100 nM). Increase in cytochrome C release is a quantitative measure of mitochondrial apoptosis initiation.
BH3 profiling was performed in black 384-well plates according to A. Letai method (https://letailab.dana-farber.org/bh3-profiling.html). Briefly, cells ([…]) were seeded in 6-well plates in 5 mL of complete RPMI medium and exposed to Midostaurin and S63845 given alone or in combination. Control cells received DMSO. Cells were incubated for 6 hours, collected, washed twice in PBS and resuspended in MEB buffer (150 mM mannitol, 10 mM HEPES-KOH pH 7.5, 150 mM KCl, 1 mM EGTA, 1 mM EDTA, 0.1% BSA, 5 mM succinate) to a final density 1×10^6/mL. Cells (15 μL) were added to 384-well plate containing containing peptides % BH3 mimetics and 15 μL of 0.002% digitonin in MEB buffer. Cells were incubated for 1 hour in 25° C. and subsequently fixed in 10 μL of 4% formaldehyde in PBS for 10 minutes. To terminate the fixation, 10 μL of N2 buffer (1.7M Tris, 1.25M Glycine pH 9.1) was added and cells were left at room temperature for 5 minutes. […] Cytochrome C release was measured by flow cytometry.

[5] = tested on: Molm13; experiment: Caspase-Glo 3/7 caspase3.7 activity, dose matrix, Molm13; assay type: cell-based; settings: single agent, Molm13 (FLT3-ITD), 6 hours treatment, highest dose 3 uM
Procedure: (§1) Both compounds were dissolved in 100% DMSO (Sigma, Catalog number D2650) at concentrations of 10 mM and stored at −20° C. until use.
(§2) The cell line Molm13 used in this study was purchased from Leibniz-Institut DSMZ (ACC 554) and MV-4-11 from American Type Cell Collection (ATCC® CRL-9591). The cell lines were cultured at 37° C. in a 5% CO2 incubator, Molm13 in RPMI (Lonza, 12-702F) and MV-4-11 in IMDM (Hyclone, SH30228.01) media complemented with 10% fetal bovine serum (Seradigm, 1500-500). The cells were passaged twice a week and the medium was changed every 2 to 3 days.
(§3) Caspase3.7 activity was measured by the Caspase-Glo® 3/7 kit from Promega (G8092), 9000 cells/well were dispensed into clear-bottom 384-well black plates (Greiner, #781091) in triplicates with 30 μl/well growth media. […] Then 30 ul/well of the Caspase-Glo® 3/7 reagents was added to each well at the end and luminescence was recorded on an Envision plate reader (Perkin Elmer). Measured Luminescence is proportional to the amount of caspase activity present. […]
(§4) The Compound A and Compound B “dose matrix”, consisted of the following: both compounds were subjected to a 11 dose 1:3 serial dilution with the highest dose of 3 uM and down to no-compound control. […] The percent caspase3.7 activity was calculated using the following calculation: (I-control/compound treated)×100. […]

[6] = tested on: MV-4-11; experiment: Caspase-Glo 3/7 caspase3.7 activity, dose matrix, MV-4-11; assay type: cell-based; settings: single agent, MV-4-11 (FLT3-ITD), 6 hours treatment, highest dose 3 uM
Procedure: as §1, §2, §3, §4

Row | Compound | overall survival [1] | level of pro-apoptotic Bim [2] | level of Mcl-1 ([2]; MV-4-11 cells) | efficacy [3] | toxicity [3] | mitochondrial priming to Mcl-1 inhibitor S63845 and Bim peptide [4] | induction of caspase activity, maximum increase [5] | induction of caspase activity, maximum increase [6]
1 | CO[C@]1(O)[C@H](N(C)C(=O)c2ccccc2)C[C@H]2O[C@]1(C)n1c3ccccc3c3c4c(c5c6ccccc6n2c5c31)C(=O)NC4 [Compound A, 4′-N-benzoylstaurosporine] | increased overall survival | increased | reduced | limited efficacy | low toxicity | increased | 33% | 24%
2 | COc1ccccc1-c1nccc(COc2ccccc2C[C@@H](Oc2ncnc3sc(-c4ccc(F)cc4)c(-c4ccc(OCCN5CCN(C)CC5)c(Cl)c4C)c23)C(=O)O)n1 [Compound B, (2R)-2-{[(5Sa)-5-{3-chloro-2-methyl-4-[2-(4-methylpiperazin-1-yl)ethoxy]phenyl}-6-(4-fluorophenyl)thieno[2,3-d]pyrimidin-4-yl]oxy}-3-(2-{[2-(2-methoxyphenyl)pyrimidin-4-yl]methoxy}phenyl)propanoic acid] | – | – | – | – | – | – | 87% | 89%
